Experimental data: patent publication US10781182B2, “Compounds, process for obtaining the compounds, pharmaceutical composition, use of the compounds and method for treating psychiatric disorders and/or sleep disorders” (ACHÉ LABORATÓRIOS FARMACÊUTICOS S.A., priority 2016, dated 2020)
Converted amounts (≈) assume the structure as drawn.

Assays:
[1] = Permeability in Caco-2 cells; format: in vitro ADME; conditions: human, Caco-2, pH 6.5, 37° C.
Method: Permeability tests were performed using Caco-2 cells, a colorectal epithelial adenocarcinoma cell line. These cells resemble intestinal epithelial cells in some aspects, such as the formation of a polarized monolayer, a well-defined brush border on the apical surface, and intercellular junctions.
The test is performed in both directions [apical to basolateral (A-B) and basolateral to apical (B-A)] through the cell monolayer, allowing an efflux ratio that provides an indicator as to whether a compound undergoes active efflux. Particle detection was performed with HPLC-MS/MS (mass spectrometry) according to the calculation of the peak area of the result. MS/MS was performed by combining two mass detectors in a single instrument.
A-B permeability was performed at pH 6.5/7.4 with incubation time of 0 and 60 minutes at 37° C. and B-A permeability was performed at pH 6.5/7.4 with incubation time of 0 and 40 minutes at 37° C.

[2] = Water solubility (shake-flask, PBS pH 7.4); format: physicochemical; conditions: aqueous buffer, thermodynamic from solid
Method: In addition, chromatographic purity (%) was defined as the calculation of the main peak area relative to the calculation of the peak area integrate of the standard HPLC calibration chromatogram. A standard calibration chromatogram was then generated for each compound tested along with a UV/VIS spectrum with maximal labeled absorbance. The shake-flash technique was used with constant stirring during incubation to keep a uniform medium for 24 hours in PBS at pH 7.4.

human hepatocytes = assay: Intrinsic clearance in cryopreserved human hepatocytes; format: in vitro ADME
Method: (§1) Cryopreserved hepatocytes from humans, rats (Sprague-Dawley males) and from mice (CD-1 males) were used for incubation at different times (0, 0.5, 1, 1.5, 2 hours) at 37° C. followed by HPLC-MS/MS detection. The aim was to verify the clearance time of the test substance on hepatocytes. The experiment was performed on a 96-well plate and the cryopreserved hepatocytes were thawed and resuspended in Krebs-Heinslet buffer(pH 7.3). The reaction was started by adding each test compound to each cell suspension and performing the incubation at the times indicated above. The reaction was quenched with addition of acetonitrile in the wells and detection by HPLC-MS/MS (mass spectrometry). MS/MS is performed by combining two mass detectors into a single instrument.

[3] = test system: rat hepatocytes (Sprague-Dawley males); assay: Intrinsic clearance in cryopreserved rat hepatocytes; format: in vitro ADME
Method: as §1

[4] = test system: mouse hepatocytes (CD-1 males); assay: Intrinsic clearance in cryopreserved mouse hepatocytes; format: in vitro ADME
Method: as §1

CYP1A2 = CYP1A2 (Homo sapiens (Human), UniProt P05177); assay: CYP inhibition, fluorogenic substrate; format: in vitro ADME
Chain of CYP1A2 (P05177 whole entry): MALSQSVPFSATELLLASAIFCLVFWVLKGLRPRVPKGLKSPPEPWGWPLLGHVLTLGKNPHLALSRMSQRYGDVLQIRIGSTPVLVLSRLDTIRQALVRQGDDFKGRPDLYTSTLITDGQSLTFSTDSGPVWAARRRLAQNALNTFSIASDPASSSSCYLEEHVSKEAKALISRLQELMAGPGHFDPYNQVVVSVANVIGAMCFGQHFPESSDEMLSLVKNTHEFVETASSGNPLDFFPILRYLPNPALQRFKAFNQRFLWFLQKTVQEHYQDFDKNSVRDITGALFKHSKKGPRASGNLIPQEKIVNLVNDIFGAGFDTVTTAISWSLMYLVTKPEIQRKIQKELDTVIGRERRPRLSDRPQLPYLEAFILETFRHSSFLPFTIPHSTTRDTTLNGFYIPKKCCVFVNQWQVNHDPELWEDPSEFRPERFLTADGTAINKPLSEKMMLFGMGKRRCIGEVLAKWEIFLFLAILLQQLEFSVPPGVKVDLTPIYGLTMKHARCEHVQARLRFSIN
Source text: (§2) The CYP inhibition test used fluorogenic substrates specific to each CYP to check for inhibition thereof by detection of the expected metabolite using a fluorimetric method. Recombinant CYPs (CYP2B6, CYP2C8, […], CYP2C19, CYP2D6, CYP3A4) from specific humans for each cytochrome family, subfamily and polypeptide were used. The following were used as substrates: CEC (3-Cyano-7-Ethoxycoumarin) which forms as metabolite CHC (3-Cyano-7-Hydroxycoumarin); EFC (7-Ethoxy-4-trifluoromethyl coumarin), forming the metabolite HFC (7-Hydroxytri fluoromethylcoumarin); DBF (Dibenzylfluorescein) and its respective fluorescein metabolite; MFC (7-Methoxy-4-trifluoromethylcoumarin) which forms the metabolite HFC (7-Hydroxytrifluoromethylcoumarin); BFC (7-Benzyloxy-Trifluoromethylcoumarin) and its metabolite HFC; and BzRes (benzyloxyresorufin) to form resofurine. The detection of the metabolite was done with a fluorimetric method: analytical technique to identify and characterize the amount of substance by excitation using a beam of ultraviolet light and measurement of the emitted fluorescence. For detection, a 96-well plate was used. Each sample was tested in two wells (n=2) as standard condition. At least 04 wells were separated for vehicle (control). Compounds were tested at a concentration […], standard for this assay. They were preincubated with a NADPH generator system in a phosphate buffer (pH 7.4) for 5 minutes at 37° C. The reaction was started by adding the specific CYP enzymes, substrate and bovine serum albumin (BSA<0.4 mg/ml). Incubations were performed between 20-50 minutes at 37° C. according to the specific parameter of each fluorogenic substrate, for the evaluated component. Fluorescence at each well was detected before and after the incubation period.

CYP2B6 = CYP2B6 (Homo sapiens (Human), UniProt P20813); assay: CYP inhibition, fluorogenic substrate; format: in vitro ADME; parameters: dose or concentration left out as unconfirmed; conditions: recombinant CYP2B6, pH 7.4
Chain of CYP2B6 (P20813 whole entry): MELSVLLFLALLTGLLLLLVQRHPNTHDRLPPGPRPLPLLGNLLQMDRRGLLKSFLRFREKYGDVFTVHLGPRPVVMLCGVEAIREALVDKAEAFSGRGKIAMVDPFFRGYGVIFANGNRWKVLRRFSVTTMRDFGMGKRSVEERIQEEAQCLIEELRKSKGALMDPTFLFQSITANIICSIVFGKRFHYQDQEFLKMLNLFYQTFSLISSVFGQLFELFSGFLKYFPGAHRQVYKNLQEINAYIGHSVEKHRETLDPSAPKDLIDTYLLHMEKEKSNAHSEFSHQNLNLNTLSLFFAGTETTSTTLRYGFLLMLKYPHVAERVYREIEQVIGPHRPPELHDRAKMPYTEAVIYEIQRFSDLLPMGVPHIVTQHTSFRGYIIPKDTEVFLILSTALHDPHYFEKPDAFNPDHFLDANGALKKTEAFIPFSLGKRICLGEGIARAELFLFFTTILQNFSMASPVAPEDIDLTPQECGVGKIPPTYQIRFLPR
Source text: as §2

CYP2C19 = CYP2C19 (Homo sapiens (Human), UniProt P33261); assay: CYP inhibition, fluorogenic substrate; format: in vitro ADME; parameters: dose or concentration left out as unconfirmed; conditions: recombinant CYP2C19, pH 7.4
Chain of CYP2C19 (P33261 whole entry): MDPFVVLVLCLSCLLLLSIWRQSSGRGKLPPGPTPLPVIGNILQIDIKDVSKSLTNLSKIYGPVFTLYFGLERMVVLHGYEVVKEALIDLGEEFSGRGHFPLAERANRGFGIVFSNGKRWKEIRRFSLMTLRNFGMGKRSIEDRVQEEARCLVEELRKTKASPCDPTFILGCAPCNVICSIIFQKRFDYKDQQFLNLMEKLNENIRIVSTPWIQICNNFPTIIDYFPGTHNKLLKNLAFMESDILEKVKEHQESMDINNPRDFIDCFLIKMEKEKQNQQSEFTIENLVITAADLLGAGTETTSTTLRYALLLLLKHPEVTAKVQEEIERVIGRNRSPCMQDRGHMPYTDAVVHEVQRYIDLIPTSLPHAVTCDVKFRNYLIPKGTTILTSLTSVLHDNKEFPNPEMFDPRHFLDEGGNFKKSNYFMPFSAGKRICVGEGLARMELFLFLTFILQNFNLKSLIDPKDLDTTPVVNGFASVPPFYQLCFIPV
Source text: as §2

CYP2C8 = CYP2C8 (Homo sapiens (Human), UniProt P10632); assay: CYP inhibition, fluorogenic substrate; format: in vitro ADME; parameters: dose or concentration left out as unconfirmed; conditions: recombinant CYP2C8, pH 7.4
Chain of CYP2C8 (P10632 whole entry): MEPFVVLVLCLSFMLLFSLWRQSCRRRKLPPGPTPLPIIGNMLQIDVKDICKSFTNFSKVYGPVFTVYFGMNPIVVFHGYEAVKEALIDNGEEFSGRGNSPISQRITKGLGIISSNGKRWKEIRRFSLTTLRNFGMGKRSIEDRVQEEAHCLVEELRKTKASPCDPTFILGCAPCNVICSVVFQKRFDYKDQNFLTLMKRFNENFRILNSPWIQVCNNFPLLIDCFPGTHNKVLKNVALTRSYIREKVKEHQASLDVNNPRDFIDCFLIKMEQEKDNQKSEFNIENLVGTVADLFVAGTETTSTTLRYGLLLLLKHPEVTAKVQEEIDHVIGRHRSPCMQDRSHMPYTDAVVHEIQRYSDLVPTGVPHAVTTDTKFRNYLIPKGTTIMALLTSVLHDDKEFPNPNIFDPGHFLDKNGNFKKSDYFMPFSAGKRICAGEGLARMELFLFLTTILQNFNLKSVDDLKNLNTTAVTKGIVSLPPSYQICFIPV
Source text: as §2

CYP2C9 = CYP2C9 (Homo sapiens (Human), UniProt P11712); assay: CYP inhibition, fluorogenic substrate; format: in vitro ADME; parameters: dose or concentration left out as unconfirmed; conditions: recombinant CYP2C9, pH 7.4
Chain of CYP2C9 (P11712 whole entry): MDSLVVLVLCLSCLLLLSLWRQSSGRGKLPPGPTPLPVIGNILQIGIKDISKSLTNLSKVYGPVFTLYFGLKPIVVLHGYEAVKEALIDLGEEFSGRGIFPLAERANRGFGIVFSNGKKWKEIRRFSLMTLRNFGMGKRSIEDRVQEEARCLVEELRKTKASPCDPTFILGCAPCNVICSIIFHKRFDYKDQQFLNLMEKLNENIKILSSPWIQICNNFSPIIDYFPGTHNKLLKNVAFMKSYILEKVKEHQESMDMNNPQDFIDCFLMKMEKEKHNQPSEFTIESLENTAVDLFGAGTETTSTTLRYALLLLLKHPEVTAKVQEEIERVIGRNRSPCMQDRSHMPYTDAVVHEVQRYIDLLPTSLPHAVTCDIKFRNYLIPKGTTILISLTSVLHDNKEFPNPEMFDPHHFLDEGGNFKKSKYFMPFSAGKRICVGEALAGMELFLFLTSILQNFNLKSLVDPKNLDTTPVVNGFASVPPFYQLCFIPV
Source text: as §2

CYP2D6 = CYP2D6 (Homo sapiens (Human), UniProt P10635); assay: CYP inhibition, fluorogenic substrate; format: in vitro ADME; parameters: dose or concentration left out as unconfirmed; conditions: recombinant CYP2D6, pH 7.4
Chain of CYP2D6 (P10635 whole entry): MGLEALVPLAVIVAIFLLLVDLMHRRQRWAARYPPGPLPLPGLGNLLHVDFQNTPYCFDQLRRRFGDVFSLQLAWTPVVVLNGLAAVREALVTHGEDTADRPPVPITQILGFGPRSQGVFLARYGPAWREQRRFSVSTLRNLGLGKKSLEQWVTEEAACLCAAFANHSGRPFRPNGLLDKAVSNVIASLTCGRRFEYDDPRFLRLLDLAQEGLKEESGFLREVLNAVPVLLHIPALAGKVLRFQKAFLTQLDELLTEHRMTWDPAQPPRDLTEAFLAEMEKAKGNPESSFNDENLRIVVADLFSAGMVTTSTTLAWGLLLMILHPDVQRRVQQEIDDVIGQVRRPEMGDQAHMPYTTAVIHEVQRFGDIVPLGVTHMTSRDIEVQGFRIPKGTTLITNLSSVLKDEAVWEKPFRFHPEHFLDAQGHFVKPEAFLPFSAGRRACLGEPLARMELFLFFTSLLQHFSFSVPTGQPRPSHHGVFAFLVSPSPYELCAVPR
Source text: as §2

MT1 receptor = MT1 receptor (Homo sapiens (Human), UniProt P48039); assay: MT1 functional assay; conditions: MT1 and MT2 receptors
Chain of MT1 receptor (P48039 whole entry): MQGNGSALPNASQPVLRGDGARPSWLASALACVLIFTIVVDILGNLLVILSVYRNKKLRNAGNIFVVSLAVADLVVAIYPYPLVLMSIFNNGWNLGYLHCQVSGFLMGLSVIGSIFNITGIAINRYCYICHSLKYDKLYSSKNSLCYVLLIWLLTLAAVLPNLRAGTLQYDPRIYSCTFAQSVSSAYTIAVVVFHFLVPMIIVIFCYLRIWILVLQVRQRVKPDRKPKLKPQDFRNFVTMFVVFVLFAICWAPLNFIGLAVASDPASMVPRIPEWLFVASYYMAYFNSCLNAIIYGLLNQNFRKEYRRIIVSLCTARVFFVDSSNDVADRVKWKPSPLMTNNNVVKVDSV

- Papp A→B at 60 min ([1]; apical to basolateral, 60 min, read-out: Permeability A-B (pH 6.5/7.4)): 83.9 ×10⁻⁶ cm/s
- Papp B→A at 40 min ([1]; basolateral to apical, 40 min, read-out: Permeability B-A (pH 6.5/7.4)): 48.5 ×10⁻⁶ cm/s
- solubility at 24 h [2]: 196 µM (≈ 47.7 µg/mL)
- Intrinsic clearance half-life, Human (human hepatocytes): 48 min
- Intrinsic clearance half-life, Rat Sprague-Dawley [3]: 50 min
- Intrinsic clearance half-life, Mouse CD-1 [4]: 25 min
- affinity to cytochrome isoforms (in words) (CYP1A2): high affinity
- inhibition (CYP2B6): 1.8%
- inhibition (CYP2C19): 44.4%
- inhibition (CYP2C8): 12.9%
- inhibition (CYP2C9): -19.3%
- inhibition (CYP2D6): 7.9%
- intrinsic activity (agonist, antagonist or inverse agonist) (MT1 receptor): agonist
Structure (SMILES): COc1ccc2cccc(CCNC(C)=O)c2c1 [IA2-76, agomelatine, reference compound]
